{"source": "paper PMC12263422", "about": "“Cryo-EM structure of the human THIK-1 K2P K^+ channel reveals a lower Y gate regulated by lipids and anesthetics” (Nature Structural & Molecular Biology, 2025)", "biological_target": "T1, THIK-1 I139A (Homo sapiens, UniProt Q9HB14, I139A)", "T1 construct": "expressed in transfected cells; host or cells: Xenopus oocytes (mRNA injection)", "T1 sequence (Q9HB14 1-408 I139A)": "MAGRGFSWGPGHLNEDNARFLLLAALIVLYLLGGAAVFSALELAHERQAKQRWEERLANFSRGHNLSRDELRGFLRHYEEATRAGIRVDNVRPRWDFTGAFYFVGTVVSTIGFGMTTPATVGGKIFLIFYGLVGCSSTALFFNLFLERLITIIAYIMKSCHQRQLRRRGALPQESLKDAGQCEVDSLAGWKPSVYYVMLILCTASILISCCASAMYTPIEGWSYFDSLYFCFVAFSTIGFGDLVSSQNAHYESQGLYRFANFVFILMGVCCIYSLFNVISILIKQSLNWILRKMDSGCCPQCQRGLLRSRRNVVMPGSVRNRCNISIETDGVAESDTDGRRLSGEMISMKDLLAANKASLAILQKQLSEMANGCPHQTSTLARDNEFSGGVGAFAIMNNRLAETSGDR", "experiment": "Inside-out excised patch recordings, oocytes, THIK-1 I139A mutant", "format": "cell-based", "conditions": "for τ of 1 mM TPenA block / τ of 1 mM TPenA release: I139A; for Normalized currents: THIK-1 I139A", "description": "Human K2P13.1 THIK-1 (GenBank accession number: NM_022054) and human K2P12.1 THIK-2 (NM_022055.1) were used in this study. For functional expression studies, the respective K^+ channel subtype coding sequences were subcloned into the oocyte expression vector pSGEM or the dual-purpose expression vector pFAW[41] and verified by sequencing. All mutant channels were obtained by site-directed mutagenesis and verified by sequencing. To increase surface expression and macroscopic currents, measurements of THIK-2 channels used a mutated ER retention motif, (R11A R12A R14A R15A R16A; THIK-2*)[20]. Vector DNA was linearized with NheI or MluI, and mRNA was synthesized in vitro using the SP6 or T7 AmpliCap Max High Yield Message Maker Kit (Cellscript, USA) or HiScribe T7 ARCA mRNA Kit (New England Biolabs).\nTwo-electrode voltage–clamp (TEVC) studies were performed in Xenopus oocytes. All animal use conformed to the Guide for the Care and Use of Laboratory Animals (NIH Publication 85–23), and all experiments using Xenopus toads were approved by the local ethics panels. Oocytes were stored at 17 °C in ND96 recording solution composed of (in mM): 96 NaCl, 2 KCl, 1.8 CaCl2, 1 MgCl2, 5 HEPES (pH 7.5 adjusted with NaOH and HCl), supplemented with Na-pyruvate (275 mg L^–1), theophylline (90 mg L^–1) and gentamicin (50 mg L^–1). Oocytes were injected with 1 ng mRNA for WT or mutant channels, and were incubated for 24–48 h at 17 °C. Two-electrode voltage clamp recordings were then performed as previously described[42],[43]. For macroscopic patch–clamp measurements, oocytes were obtained as described above incubated at 17 °C in a solution containing (mM): 54 NaCl, 30 KCl, 2.4 NaHCO3, 0.82 MgSO4 ×7 H2O, 0.41 CaCl2, 0.33 Ca(NO3)2 ×4 H2O and 7.5 TRIS (pH 7.4 adjusted with NaOH and HCl) for 1–4 days before use. Excised patch recordings in inside-out configuration conditions were performed at room temperature. Patch pipettes were made from thick-walled borosilicate glass GB 200TF-8P (Science Products), had resistances of 0.2–0.5 MΩ (tip diameter, 10–25 µm) and filled with a pipette solution (in mM): 120 KCl, 10 HEPES and 3.6 CaCl2 (pH 7.4 adjusted with KOH and HCl). Intracellular bath solutions and compounds were applied to the cytoplasmic side of excised patches for the various K^+ channels through a gravity flow multi-barrel pipette system. The intracellular solution had the following composition (in mM): 120 KCl, 10 HEPES, 2 EGTA and 1 pyrophosphate (pH adjusted with KOH and HCl). Currents were recorded with an EPC10 amplifier (HEKA Electronics) and sampled at 10 kHz or higher, with filtering set to 3 kHz (–3 dB) or higher, as appropriate for sampling rate. For measurements of GPCR activation, whole-cell currents were recorded for THIK-1 in transiently transfected HEK-293 cells. Cells were stimulated by a ramp protocol between −100 and +60 mV (holding potential, −80 mV). The pipette solution was composed of (in mM): 140 KCl, 2 MgCl2, 1 CaCl2, 2.5 EGTA and 10 HEPES (pH 7.3 adjusted with KOH and HCl). The extracellular bath solution had the following composition (in mM): 135 NaCl, 5 KCl, 2 MgCl2, 2 CaCl2, 10 glucose and 10 HEPES pH (pH 7.3 adjusted with NaOH and HCl). Oxotremorine M (Oxo-M) was added to extracellular bath solution to obtain the final concentration. Single-channel currents were recorded with an Axopatch 200B amplifier through a Digidata 1440A digitizer (Molecular Devices). Data were filtered at 2 kHz and recorded at a 200-kHz sampling rate with the program Clampex (Molecular Devices). Pipette solution and bath solution for cell-attached recordings contained (in mM): 140 KCl, 2 MgCl2, 1 CaCl2 and 10 HEPES (pH 7.4 adjusted with KOH and HCl). For inside-out recordings, the bath solution contained (in mM): 140 KCl, 2 MgCl2, 1 CaCl2 and 10 HEPES (pH 7.2 adjusted with KOH and HCl). All experiments were conducted at room temperature. […]", "note": "“And” between values parts separate entries of the source, which are not always exact repeats. Identical values can stand only once.", "data": [{"smiles": "CCCCC[N+](CCCCC)(CCCCC)CCCCC", "note": "[TPenA, tetrapentylammonium]", "values": [{"measurement": "τ of 1 mM TPenA block", "setting": "individual recordings", "value": "0.150 s and 0.087 s and 0.338 s and 0.121 s and 0.235 s and 0.061 s and 0.088 s and 0.065 s and 0.063 s and 0.057 s and 0.086 s and 0.068 s and 0.117 s and 0.145 s and 0.215 s and 0.129 s and 0.101 s and 0.147 s and 0.113 s and 0.270 s and 0.151 s and 0.198 s and 0.133 s"}, {"measurement": "τ of 1 mM TPenA release", "setting": "individual recordings", "value": "1.320 s and 0.719 s and 0.852 s and 0.882 s and 0.634 s and 0.828 s and 0.460 s and 0.897 s and 0.583 s and 1.759 s and 0.311 s and 0.642 s and 0.558 s and 0.489 s and 0.435 s and 0.476 s and 0.409 s and 0.565 s and 0.635 s and 0.683 s and 0.647 s and 0.518 s and 0.501 s"}, {"measurement": "τ of 1 mM TPenA block", "setting": "mean", "value": 0.13, "unit": "s"}, {"measurement": "τ of 1 mM TPenA release", "setting": "mean", "value": 0.68, "unit": "s"}, {"measurement": "Normalized currents", "setting": "TPenA 0.1 µM", "value": 1.00}, {"measurement": "Normalized currents", "setting": "TPenA 1 µM", "value": 0.93}, {"measurement": "Normalized currents", "setting": "TPenA 4 µM", "value": 0.83}, {"measurement": "Normalized currents", "setting": "TPenA 15.6 µM", "value": 0.67}, {"measurement": "Normalized currents", "setting": "TPenA 62.5 µM", "value": 0.44}, {"measurement": "Normalized currents", "setting": "TPenA 250 µM", "value": 0.22}, {"measurement": "Normalized currents", "setting": "TPenA 1000 µM", "value": 0.11}, {"measurement": "Normalized currents", "setting": "TPenA 4000 µM", "value": 0.08}]}]}
